In one test the test system is CD11c^+-BMDC. In words: Cellular uptake of DC-targeting peptides by bone marrow-derived dendritic cells (FACS). The format is cell-based, C57BL/6 mice. The conditions noted are these: biotinylated peptides, 2 hours in RPMI 1640, FACS gated on CD11c+, compared with negative control. As to the method:
(§1) Bone marrow (BM) cells were isolated by flushing femurs and tibias of C57BL/6 mice, and red blood cells (RBCs) were depleted by ACK lysis (Gibco, A10492-01). The cells were centrifuged and strained through a 70 μm filter before being resuspended in RPMI 1640 supplemented with 10% heat-inactivated FBS, 100 units/ml penicillin, and 100 μg/ml streptomycin. The cells were resuspended in complete RPMI 1640 culture medium containing GM-CSF (10 ng/ml; R&D Systems, 415-ML-010) and IL4 (10 ng/ml; R&D Systems, 415-ML-010), inoculated into a cell culture dish, and cultured at 37° C. and 5% CO2. The culture medium was refreshed every two days. On day 7 or 8, DCs loosely bound to the bottom were collected by gentle pipetting. Splenic DCs were prepared by CD11c+ MicroBeads MACS (Miltenyi Biotec, 130-052-001) following the manufacturer's instructions.
(§2) Peptides were synthesized using […] chemistry, purified using high-pressure liquid chromatography to more than 95% purity, and biotinylated in the side chain (AnyGen Inc., South Korea). Peptides were dissolved in appropriate solvents according to the manufacturer's instructions to a concentration of 0.5 mg/ml. To test CD11c^+ cell targeting by the synthesized peptides, cLNs, splenic DCs, and BMDCs were treated with the 6 peptides for 2 hours in RPMI 1640 medium. After incubation with peptides, the cells were harvested, washed and stained with anti-mouse CD11c^+ APC-conjugated Ab (eBioscience, Clone: N418, 170114-82) and streptavidin-AF488. Cells were FACS analyzed by gating upon the CD11c^+ cell population, and the results are depicted in FIGS. 6 and 7.

Test [1] concerns cervical lymph node cells, splenic dendritic cells, and bone marrow-derived dendritic cell. The test can be described thus: Cellular uptake of DC-targeting peptides in lymph node cells, splenic DCs and BMDCs (FACS). The format is cell-based, mice. Conditions: biotinylated peptides, 2 hours, FACS gated on CD11c+. As to the method: as §1, §2
The subject of test [2] is CD11c^+ cells from cervical lymph nodes. The test can be described thus: In vivo dendritic cell targeting after intranasal administration. More on the design: species or system BALB/c mice. Conditions: 6.5 hours post-inoculation, compared to scrambled-peptide negative control. As to the method:
The peptide at appropriate concentrations in a total volume of 10 μl/nostril was given intranasally to BALB/c mice. A scrambled peptide previously shown to be nonspecific to DCs was used as a negative control. At 6.5 hours post-inoculation, mice were sacrificed, and their cLNs were harvested. Single-cell suspensions were prepared by gently tearing the LN capsule. After gentle washing in 1×PBS, cells were stained with anti-mouse CD11c^+ APC-conjugated Ab (eBioscience, Clone: N418, 170114-82) and streptavidin-AF488, and FACS analysis was performed.

In another test the test system is TC-1 cells. The test can be described thus: Efficacy of E7ΔNLS as tumor antigen in TC-1 tumor-bearing mice. The format is in vivo, C57BL/6 mice. The conditions noted are these: peritumoral injection three times at intervals of five days; 4 μg FlaB, 10 μg E7FL, 8 μg E7ΔNLS alone or combined. Here is the method: Female SPF C57BL/6 mice 7 to 8 weeks old were purchased from ORIENT (Seongnam-si, Gyeonggi-do, Korea). TC-1 cells were cultured in RPMI 1640 medium supplemented with 10% heat-inactivated FIBS, 100 units/ml penicillin, and 100 μg/ml streptomycin at 37° C. under 5% CO2. Tumors were established in mice by subcutaneous injection of 5×10^4 TC-1 cells in 100 μl of PBS into the right mid-flank of each mouse. […] Tumor growth was monitored every three days. The tumor volume was calculated with formula V=(tumor length)×(tumor width)×(tumor height)/2.

The target of another test is T1, TLR5 (Homo sapiens, UniProt O60602).
T1 construct: host or cells: HEK-Blue hTLR5 cells (HEK293-derived reporter line, own knowledge: stably transfected with the human TLR5 gene and an NF-kB-inducible SEAP reporter)
T1 sequence (O60602 21-858): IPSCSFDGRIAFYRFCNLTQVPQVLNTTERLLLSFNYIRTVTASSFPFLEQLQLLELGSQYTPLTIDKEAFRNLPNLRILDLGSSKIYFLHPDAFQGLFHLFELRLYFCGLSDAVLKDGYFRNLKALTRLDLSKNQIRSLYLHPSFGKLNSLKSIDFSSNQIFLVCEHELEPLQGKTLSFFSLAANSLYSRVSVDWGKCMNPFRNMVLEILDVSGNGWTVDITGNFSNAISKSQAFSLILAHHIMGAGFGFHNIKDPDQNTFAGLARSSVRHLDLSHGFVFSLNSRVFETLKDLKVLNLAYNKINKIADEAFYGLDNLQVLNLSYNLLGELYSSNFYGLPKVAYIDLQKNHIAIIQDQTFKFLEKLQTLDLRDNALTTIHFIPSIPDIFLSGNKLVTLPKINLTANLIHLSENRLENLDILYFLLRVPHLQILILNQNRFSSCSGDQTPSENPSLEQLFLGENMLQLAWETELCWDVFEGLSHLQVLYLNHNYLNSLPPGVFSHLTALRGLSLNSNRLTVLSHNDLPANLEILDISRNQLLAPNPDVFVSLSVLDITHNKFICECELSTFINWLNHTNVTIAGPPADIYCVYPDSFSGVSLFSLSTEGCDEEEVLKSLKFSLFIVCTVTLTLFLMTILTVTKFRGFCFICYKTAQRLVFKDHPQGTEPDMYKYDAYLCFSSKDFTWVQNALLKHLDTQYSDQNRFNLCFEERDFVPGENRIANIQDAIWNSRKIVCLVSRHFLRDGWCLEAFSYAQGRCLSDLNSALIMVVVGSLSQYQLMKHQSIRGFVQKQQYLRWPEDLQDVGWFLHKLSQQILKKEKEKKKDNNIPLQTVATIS
Type of test: cell-based. Conditions: HEK-Blue hTLR5 cells. As to the method: Also, the EC50 was calculated using triplicate OD 620 nm values for each protein concentration over a wide range of protein concentrations (0.0375 nM-19.29 nM at the AAT Bioquest website).

Test [3] relates to Bone marrow-derived dendritic cells (BMDCs). The test can be described thus: Cellular uptake of EF and DEF in BMDCs (flow cytometry). Conditions: 2 hours, anti-FlaB staining, FACS gated on CD11c+. Type of test: cell-based, C57BL/6 mice. As to the method: Cells treated with PBS alone were used as a negative control. After incubation, the cells were washed twice with cold 1×PBS containing 3% FBS and then stained with anti-mouse CD11c^+ antibody (eBioscience, Clone: N418, 25-0114-82) for 1 hour at 4° C. and fixed with 4% paraformaldehyde (T&I, BPP-9004) for 10 minutes at room temperature. The cells were permeabilized using a permeabilization kit according to the manufacturer's instructions (Invitrogen, 00-8333-56) and stained with anti-FlaB antibodies, followed by FACS analysis by gating upon the CD11c^+ population. The results are depicted in FIG. 14.
(In flow cytometry, cells or beads pass a laser one at a time.)

Test [4] has the same test system. In words: Antigen-presenting cell activation (CD80 and CD86 on BMDC surface). The format is cell-based, C57BL/6 mice. Conditions: 0.5 μg/ml, 24 hours. An excerpt:
The cells were stained on ice with fluorophore-labeled antibodies before flow cytometry analysis.

Entries after “also recorded” stand apart in the source; their conditions may differ. Ends that are not written are not given here. * marks the point of attachment. Biotin = O=C1N[C@H]2[C@H](CS[C@H]2CCCCC(=O)*)N1

We go through 5 molecules from US20240207380A1, “NOVEL PEPTIDE TARGETING DENDRITIC CELLS, AND COMPOSITION FOR TREATING CANCER COMPRISING SAME” (INDUSTRY FOUNDATION OF CHONNAM NATIONAL UNIVERSITY, priority 2021, published 2024).

As to “DCpep6: RFFCLGPLGFTKVD, SEQ ID NO: 6; dendritic cell-targeting peptide discovered by in vivo biopanning (peptide 6, and DCpep6)”, the “targeting ability / cellular uptake of the peptides by bone marrow-derived dendritic cells (FIG. 6)” value with CD11c^+-BMDC is “efficiently targeted; also recorded: remarkably higher efficiency”. Moreover, the results for the “cellular uptake in cervical lymph node cells, splenic dendritic cells and BMDCs (FIG. 7)” value in test [1] and in test [1] (listed as DCpep 6) were “remarkably higher specific signals” and “increased cellular uptake”, respectively. Further, the “localization of peptide in cervical lymph node cells (FIG. 8)” value in test [2] is given as “clearly localized in the cytoplasm of CD11c^+ cells”.
In the case of “DCpep 3: SPACLDLGLVPWKI, SEQ ID NO: 9; dendritic cell-targeting peptide, Arg replaced by Lys for biotinylation (SPACLDLGLVPWK(Biotin)I)”, the “targeting ability / cellular uptake of the peptides by bone marrow-derived dendritic cells (FIG. 6)” value in the test with CD11c^+-BMDC was “efficiently targeted”. Also, the “cellular uptake in cervical lymph node cells, splenic dendritic cells and BMDCs (FIG. 7)” value in test [1] is on record as “increased cellular uptake”.
The corresponding values for “DCpep 4: VDLYPCYTFHSKVV, SEQ ID NO: 10; dendritic cell-targeting peptide, Arg replaced by Lys for biotinylation (VDLYPCYTFHSK(Biotin)VV; not fully specified)” are “efficiently targeted” and “increased cellular uptake”.

B1: FlaB: flagellin B (FlaB) derived from Vibrio vulnificus, SEQ ID NO: 23 (protein)
chain: MAVNVNTNVAAMTAQRYLNNANSAQQTSMERLSSGFKINSAKDDAAGLQISNRLNVQSRGLDVAVRNANDGISIAQTAEGAMNETTNILQRMRDLSLQSANGSNSKSERVAIQEEVTALNDELNRIAETTSFGGNKLLNGTYGTKAMQIGADNGEAVMLSLKDMRSDNVMMGGVSYQAEEGKDKNWNVAAGDNDLTIALTDSFGNEQEIEINAKAGDDIEELATYINGQTDLVKASVGEGGKLQIFAGNNKVQGEIAFSGSLAGELGLGEGKNVTVDTIDVTTVQGAQESVAIVDAALKYVDSHRAELGAFQNRFNHAISNLDNINENVNASKSRIKDTDFAKETTQLTKTQILSQASSSILAQAKQAPNSALSLLG
modifications: FlaB (F)
With B1, the “tumor suppression (tumor volume, FIGS. 11 and 12)” value in the test on TC-1 cells was “did not manifest any suppressive effect”.

B2: EF: recombinant fusion of four copies of E7ΔNLS and FlaB, SEQ ID NO: 24 (protein)
chain: MIDGPAGQAEPDRAHYNIVTFCCKCDSTLRLCVQSTHVDIRTLEDLLMGTLGIVCPICSQKPEFIDGPAGQAEPDRAHYNIVTFCCKCDSTLRLCVQSTHVDIRTLEDLLMGTLGIVCPICSQKPVDIDGPAGQAEPDRAHYNIVTFCCKCDSTLRLCVQSTHVDIRTLEDLLMGTLGIVCPICSQKPVDIDGPAGQAEPDRAHYNIVTFCCKCDSTLRLCVQSTHVDIRTLEDLLMGTLGIVCPICSQKPKLMAVNVNTNVAAMTAQRYLNNANSAQQTSMERLSSGFKINSAKDDAAGLQISNRLNVQSRGLDVAVRNANDGISIAQTAEGAMNETTNILQRMRDLSLQSANGSNSKSERVAIQEEVTALNDELNRIAETTSFGGNKLLNGTYGTKAMQIGADNGEAVMLSLKDMRSDNVMMGGVSYQAEEGKDKNWNVAAGDNDLTIALTDSFGNEQEIEINAKAGDDIEELATYINGQTDLVKASVGEGGKLQIFAGNNKVQGEIAFSGSLAGELGLGEGKNVTVDTIDVTTVQGAQESVAIVDAALKYVDSHRAELGAFQNRFNHAISNLDNINENVNASKSRIKDTDFAKETTQLTKTQILSQASSSILAQAKQAPNSALSLLGLEHHHHHH
modifications: 4xE7deltaNLS::FlaB (EF)
In the case of B2, the “NF-κB activity levels (FIG. 13)” value with TLR5 is reported as “increased the activity in dose-dependent manners”. In addition, in test [3], the “cellular uptake in bone marrow-derived dendritic cells (FIG. 14)” value is on record as “scarcely detected”. In addition, in test [4], the “expression of CD80 and CD86 on BMDC surface (FIG. 20)” value was “no statistical significance”.
